# Experimental data: patent US20220273678A1 (priority 2020, published 2022)
# Tests used:
# [1] = test system: SARS-CoV-2 Delta variant; assay type: cell-based; details: 1000 nM Mito-MES; 1000 nM dTPP; CoQ10 1000-2000 nM
# [2] = test system: SARS-CoV-2 Beta variant; assay type: cell-based; details: for antiviral activity against Beta variant, viral titer assay: hACE2 HEK293T, 1000 nM dTPP, CoQ10 1000-2000 nM
# [3] = test system: SARS-CoV-2 Delta variant; set-up: species or system mice; details: mouse, in vivo
# [4] = test system: SARS-CoV-2 Beta; experiment: microbe, parasite or virus in culture; assay type: cell-based; details: Severe acute respiratory syndrome coronavirus 2, Calu-3
# [5] = test system: SARS-CoV-2 Delta variant; experiment: microbe, parasite or virus in culture; assay type: cell-based; details: Severe acute respiratory syndrome coronavirus 2, Calu-3
# [6] = test system: SARS-CoV-2 Beta variant; set-up: species or system mice; details: mouse, in vivo
Structure (SMILES),antiviral activity against Delta variant in ALI lung cultures [1],"antiviral activity against Beta variant, viral titer assay [2]","SARS-CoV-2 N protein in lungs, ELISA [3]","reduction of viral titer relative to vehicle ([3]; po, 20 mg/kg)",IC50 [4],IC50 [5],"time-of-addition study, intracellular N protein [2]","IL-lb, IL-6, TNFa in the lung [6]","cleaved caspase 3 in lung, immunofluorescence [6]",frequency of NK cells in lungs [6],histopathology: lung inflammation and tissue damage [6]
"COC1=C(OC)C(=O)C(C/C=C(\C)CC/C=C(\C)CC/C=C(\C)CC/C=C(\C)CC/C=C(\C)CC/C=C(\C)CC/C=C(\C)CC/C=C(\C)CC/C=C(\C)CCC=C(C)C)=C(C)C1=O [CoQ10, Coenzyme Q10]",only higher concentrations (1000-2000 nM),only higher concentrations (1000-2000 nM),–,–,–,–,–,–,–,–,–
"COC1=C(OC)C(=O)C(CCCCCCCCCC[P+](c2ccccc2)(c2ccccc2)c2ccccc2)=C(C)C1=O.CS(=O)(=O)[O-] [Mito-MES, 10-(4,5-dimethoxy-2-methyl-3,6-dioxo-1,4-cyclohexadienyl) decyl triphenylphosphonium methanesulfonate]",inhibited SARS-CoV-2 Delta variants in ALI lung cultures,–,further confirmed by ELISA,~3 log units,34 nM,41 nM,also even when added 4 hours after infection,"reduction in IL-lb, IL-6, TNFa",inhibited SARS-CoV-2-associated increase in cleaved caspase 3,reduced frequency of NK cells,reduction of lung inflammation and tissue damage
CCCCCCCCCC[P+](c1ccccc1)(c1ccccc1)c1ccccc1.[Br-] [dTPP],potent antiviral activity,potent antiviral activity,–,–,–,–,reduced SARS-CoV-2 entry and had less impact on SARS-CoV-2 cytoplasmic replication,–,–,–,–
